Results: PubChem BioAssay (NCI)
Several values for one entry are separate records, joined by “and”; a condition that tells them apart may be missing. Identical values can stand only once.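 48-hour exposure; five concentrations; linearly interpolated endpoints. Abbreviation: GI50, concentration required for 50% inhibition of growth. TGI denotes the concentration required for complete inhibition of growth.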

Experiments:
Test in all cases: growth of human tumour cells (NCI), 48 h
LOX IMVI melanoma = tested on: LOX IMVI melanoma
ACHN renal = tested on: ACHN renal
SF-539 CNS = tested on: SF-539 CNS
OVCAR-8 ovarian = tested on: OVCAR-8 ovarian
MDA-MB-231 breast = tested on: MDA-MB-231 breast
KM12 colon = tested on: KM12 colon
SK-OV-3 ovarian = tested on: SK-OV-3 ovarian
U251 CNS = tested on: U251 CNS

SMILES	GI50 (LOX IMVI melanoma)	TGI (LOX IMVI melanoma)	GI50 (ACHN renal)	TGI (ACHN renal)	GI50 (SF-539 CNS)	TGI (SF-539 CNS)	GI50 (OVCAR-8 ovarian)	TGI (OVCAR-8 ovarian)	GI50 (MDA-MB-231 breast)	TGI (MDA-MB-231 breast)	GI50 (KM12 colon)	TGI (KM12 colon)	GI50 (SK-OV-3 ovarian)	TGI (SK-OV-3 ovarian)	GI50 (U251 CNS)	TGI (U251 CNS)
COC(=O)[C@H](Cc1ccccc1)NC(=O)c1csc([C@@H](C[C@H](C(C)C)N(C)C(=O)[C@@H](NC(=O)[C@H]2CCCN2C)C2CC2)OC(C)=O)n1	0.301 µM	> 33.3 µM	1.44 µM	> 33.3 µM	0.29 µM	1.55 µM	0.602 µM	> 33.3 µM	0.577 µM	> 12.9 µM	0.45 µM	> 33.3 µM	1.04 µM	> 33.3 µM	0.521 µM	> 33.3 µM
COc1ccc2cc(-c3c(-c4ccncc4)nc(-c4ccc(S(C)=O)cc4C)n3C)ccc2c1 (stereo unspecified)	16.4 µM	> 25 µM	13.2 µM	> 25 µM	> 25 µM	> 25 µM	24.7 µM	> 25 µM	> 25 µM	> 25 µM	> 22.3 µM	> 25 µM	11.3 µM	> 25 µM	> 23.2 µM	> 25 µM
CN(C)CCCN1c2ccccc2Sc2ccc(Cl)cc21	10.8 µM and 10.3 µM	23.4 µM and 24.5 µM	4.06 µM and 5.71 µM	14.8 µM and 18.3 µM	3.22 µM and 11.4 µM	7.79 µM and 26 µM	4.07 µM and 9.24 µM	15.5 µM and 22.8 µM	1.99 µM and 2.1 µM	5.35 µM and 6.87 µM	4.23 µM and 5.55 µM	14.8 µM and 17.6 µM	2.76 µM and 3.22 µM	7.62 µM and 9.3 µM	2.62 µM and 3.46 µM	7.9 µM and 14.4 µM
COc1ccc2c(c1)nc1n2C(c2ccc(F)cc2)SC1 (stereo unspecified)	24.8 µM	61 µM	20.8 µM	47.3 µM			17.2 µM	43.2 µM			23.3 µM	70.2 µM	22.4 µM	> 100 µM	27.9 µM	83.7 µM
CC[C@H](C)[C@H](NC(=O)[C@H]1CCCCN1C)C(=O)N(C)[C@H](C[C@@H](OC(C)=O)c1nc(C(=O)N[C@@H](Cc2ccccc2)C[C@H](C)C(=O)OC)cs1)C(C)C	0.000536 µM and 0.0025 µM	> 25 µM	0.000773 µM and 0.0025 µM	> 25 µM	0.000482 µM and < 0.0025 µM	0.00437 µM and < 0.0025 µM	0.000473 µM and 0.0025 µM	> 25 µM	0.00102 µM and 0.0025 µM	> 25 µM		> 25 µM	0.000264 µM and 0.0025 µM	> 25 µM	0.000376 µM and 0.0025 µM	> 25 µM
NC(N)=N/N=C/c1c(-c2ccc(Cl)c([N+](=O)[O-])c2)nc2n1CCS2	2.43 µM	7.09 µM	15.7 µM	37.2 µM	7.4 µM	26.5 µM	8.89 µM	> 100 µM	2.88 µM	8.86 µM	12.4 µM	25.7 µM	24.7 µM	75.1 µM		
CCc1cccc(CC)c1/C=C/c1cncc(C(=O)NC)c1	11.5 µM	> 25 µM	22.1 µM	> 25 µM	8.58 µM	> 25 µM	15.4 µM	> 25 µM	13.2 µM	> 25 µM	9.02 µM	> 25 µM	8.75 µM	> 25 µM	10.6 µM	> 25 µM
COc1ccc(C(=O)C[C@]2(O)C(=O)Nc3c(Cl)ccc(Cl)c32)cc1	0.581 µM	> 100 µM	0.774 µM	> 100 µM	0.478 µM	3.99 µM	0.92 µM	> 77.3 µM	0.801 µM	> 100 µM	0.39 µM	> 40.1 µM	1.89 µM	> 100 µM	0.508 µM	> 100 µM
